System: cohesin complex
Assay: ChIP-Seq for RAD21 and SMC1 (cohesin binding to chromatin) with and without auxin
Type: cell-based, human
Description: Applicants employed an auxin-inducible degron (AID) (Natsume et al., 2016) to destroy RAD21, a core component of the cohesin complex. In this system, constitutive expression of the auxin-activated ubiquitin ligase TIR1 leads, in the presence of auxin, to rapid degradation of proteins tagged with an AID domain. Applicants used this system in HCT-116, a human colorectal carcinoma cell line. This cell line had been previously modified by (Natsume et al., 2016) so that both RAD21 alleles were tagged with an AID domain and a fluorescent mClover (“RAD21-mAC”) (FIG. 1A). Applicants confirmed that RAD21-mAC was efficiently degraded after 6 hours of auxin treatment using fluorescence microscopy and ChIP (FIG. 1B, 8, see Methods), and that cohesin could no longer associate with DNA using ChIP-Seq with antibodies for SMC1, a different cohesin subunit (FIG. 1C, D).
ChIP-Seq for H3K27Ac, H3K4me1, H3K4me3, H3K36me3, H3K27me3, H3K9me3, H4K16Ac, H4K20me3, H3K79me2, and H2.AZ was performed using a native ChIP-Seq protocol. Chromatin from untreated HCT-116 RAD21-mAC cells or cells treated for 6 hours with 500 uM IAA was digested with Mnase (Sigma) in digestion buffer (50 mM Tris-HCl, pH7.6, 1 mM CaCl2), 0.2% Triton X-100, butyrate 5 mM) for 5′ at 37° C. and dialyzed against RIPA buffer for 2 hrs at 4° C. Five microgram of respective antibody was incubated with 40 μl of Dynabeads Protein A (or G) for 40 min at room temperature. Antibody-bound beads were added to 500 μl of sonicated or Mnase-digested chromatin, incubated at 4° C. overnight, and washed twice with RIPA buffer, twice with RIPA buffer containing 0.3 M NaCl, twice with LiCl buffer (0.25 M LiCl, 0.5% Igepal-630, 0.5% sodium deoxycholate), once with TE (pH 8.0) plus 0.2% Triton X-100, and once with TE (pH 8.0). ChIP DNA was purified by phenol-chloroform extraction followed by ethanol precipitation. Libraries were prepped for Illumina sequencing and 50 bp single-end reads were sequenced on a HiSeq2000 or 2500 (Illumina). Applicants also performed ChIP-Seq for RAD21 and CTCF following the same protocol as above, except that cells were fixed with 1% formaldehyde for 10 minutes at 37° C. and fixation was quenched by the addition of glycine to a final concentration of 125 mM for 10 minutes. The fixed cells were sonicated using a Branson sonifier at amplitude 35%, 12 cycles of 20 seconds of sonication and 30 seconds of pause. Antibody was added to the sonicated chromatin as above and the samples were further processed as above.
Applicants also performed ChIP-Seq for SMC1 and an additional replicate for CTCF following the protocol outlined by the ENCODE consortium (2012).
All ChIP-Seq data was aligned to hg19 with BWA […] (Li and Durbin, 2010), deduplicated using PicardTools, and analyzed with MACS 2.0 (Liu, 2014). All data was normalized against the corresponding input control using the ‘-c’ option of MACS 2.0. ChIP-Seq peaks were called using the ‘callpeak’ function of MACS 2.0 with default parameters. For H3K4me3 and H3K4me1, Applicants additionally used the ‘broad’ option of MACS 2.0 and merged close by peaks to identify broad peaks. […] Finally, in order to annotate broad-source domains, Applicants utilized RSEG (Song and Smith, 2011) using the following flags: ‘-b 25000’, ‘-i 20’, ‘-mode 2’.
Applicants also analyzed the RAD21 and SMC1 signal at all ChIP-Seq peaks called in our data from untreated cells using MACS 2.0. […]

[1] = average at ChIP-Seq peaks called in untreated cells

## O=C(O)Cc1c[nH]c2ccccc12 [auxin, indole-3-acetic acid]
6 hours auxin
  cohesin peaks (merged SMC1 and RAD21 ChIP-Seq calls) lost after auxin treatment: 97%
[1]
  reduction in binding strength of RAD21: 81%
  reduction in binding strength of SMC1: 75%
Untreated 12.58
  RAD21 mean enrichment in treated cells: 2.39
Untreated 16.23
  SMC1 mean enrichment in treated cells: 4.00
